Test results published in patent US11766430B2, “Methods of using a phenoxypropylamine compound to treat pain” (Minerva Neurosciences, Inc., priority 2018, dated 2023).
“And” between values parts separate entries of the source, which are not always exact repeats. Equal entries are not always repeated.

Test system: peripheral mononeuropathy (Bennett model) in rats
Experiment: Peripheral mononeuropathy (Bennett model, chronic constriction injury), paw pressure test (Example 3)
Assay type: in vivo, male Sprague-Dawley rats
Settings: for paw withdrawal threshold, control paw, Mean: n = 10; for Nociceptive threshold, control paw (mean ± s.e.m.): T0 (14 days after surgery, before dosing)
Procedure: The model of Chronic Constriction Injury (CCI) is based on a discrete peripheral nerve injury and can be related to post-traumatic/postsurgical neuropathic pain experienced by patients (Bennett, G. J. and Xie, Y. K., A peripheral mononeuropathy in rat that produces disorders of pain sensation like those seen in man, Pain, 1988(33):87-107). Unilateral peripheral mononeuropathy was induced by loose ligation of the rat the sciatic nerve of the right hindpaw in anaesthetized rats (xylazine 10 mg/kg i.p., ketamine 60 mg/kg i.p.). The common sciatic nerve was exposed at the level of the middle of the thigh by blunt dissection through the biceps femoris. Proximal to the sciatic trifurcation, four ligatures were tied loosely around it with about 1 mm spacing. Great care was taken to tie the ligatures, such that the diameter of the nerve was seen to be just barely constricted.
Fourteen days later, static mechanical hyperalgesia is assessed using the Paw pressure test (Randall, L. O. and Selitto, J. J., A method for measurement of analgesic activity on inflamed tissue, Arch Int Pharmacodyn, 1957(111):409-419). This test requires the application of an increasing pressure on the hind paws between a flat surface and a blunt pointer. This test is usually used with animals with one hindpaw inflamed by an injection or injured by ligation, and one normal hindpaw, to evaluate drugs for analgesic action. The apparatus exerts a steadily increasing force and reaction threshold is determined as the pressure (g) required to elicit paw withdrawal and/or vocalization. Ugo Basile Analgesimeter (Ugo Basile, Italy) was used for the paw pressure test.
Fourteen days after surgery (D0), nociceptive reaction thresholds (vocalization or paw withdrawal) was measured in order to select animals meeting the inclusion criteria: 20 g<paw withdrawal threshold<240 g (baseline).
Fifty (50) male Sprague-Dawley rats (SPF status, Janvier, France), weighing 133-181 grams the day of surgery were used. Rats were housed in a temperature (20-24° C.) and relative humidity (45%-65%) controlled room and acclimated to an artificial day/night cycle of 12 hours light (6:30 a.m. to 6:30 p.m.)/12 hours darkness. Rats had free access to sterilized tap water and were fed ad libitum with pelleted complete diet (reference A04, S.A.F.E.). Animals were housed 4 per cage (cages Type E) and were acclimated for a period of at least 5 days before any testing. Each rat was identified by tail markings. Based on the SPF status of the animal facilities, there is no reason to expect that contaminants were present in the food, water or bedding, at levels capable of interfering with the results of the tests. […]
Vehicle and MIN-117 were intraperitoneally administered at 10 mL/kg. […] Dosing and testing were performed in a random order by a blinded experimenter except for the morphine-treated group.
Thirty minutes after morphine injection, the antihyperalgesic effect of morphine was evaluated using the paw pressure test. For vehicle and MIN-117 administration, the antihyperalgesic effect of the was evaluated after 120 min. using the paw pressure test.
Results were expressed as: • The paw withdrawal threshold (mean±s.e.m.) in grams of contact pressure for each group, calculated from individual paw withdrawal thresholds • The percentage of variation of the paw withdrawal threshold calculated from the mean value of the vehicle-treated group • The percentage of activity of the compound on mechanical hyperalgesia induced by the sciatic nerve ligation, calculated as follows: […]

[1] = CCI rats, MIN-117 1 mg/kg IP group, Baseline (pre-treatment)
[2] = CCI rats, MIN-117 1 mg/kg IP, 120 min
[3] = CCI rats, MIN-117 1 mg/kg IP, 120 min after treatment, hydrochloride, 1 mg/kg
[4] = CCI rats, MIN-117 3 mg/kg IP group, Baseline (pre-treatment)
[5] = CCI rats, MIN-117 3 mg/kg IP, 120 min
[6] = CCI rats, MIN-117 3 mg/kg IP, 120 min after treatment, hydrochloride, 3 mg/kg
[7] = CCI rats, MIN-117 10 mg/kg IP group, Baseline (pre-treatment)
[8] = CCI rats, MIN-117 10 mg/kg IP, 120 min
[9] = CCI rats, MIN-117 10 mg/kg IP, 120 min after treatment, hydrochloride, 10 mg/kg
[10] = CCI, 1 mg/kg IP, T0 (before dosing)
[11] = CCI, 3 mg/kg IP, T0 (before dosing)
[12] = CCI, 10 mg/kg IP, T0 (before dosing)
[13] = CCI rats, Morphine 3 mg/kg IP [sic], 30 min
[14] = CCI rats, Morphine 3 mg/kg IP [sic], 30 min after treatment
[15] = CCI rats, Morphine 3 mg/kg group, Baseline (pre-treatment)
[16] = CCI, 3 mg/kg SC, T0 (before dosing)

In the case of `Cc1nnc(-c2cc3c(OC[C@@H](O)CN4CCC(c5ccc(Cl)c(Cl)c5)CC4)cccc3o2)o1.Cl` [MIN-117, (2S)-1-(4-(3,4-dichlorophenyl)piperidin-1-yl)-3-((2-(5-methyl-1,3,4-oxadiazol-2-yl)benzofuran-4-yl)oxy)propan-2-ol hydrochloride], the “% variation vs control paw, injured paw” value [1] is reported as −54%, the “% variation vs vehicle treated group, injured paw” value [1] is reported as −6% and the “paw withdrawal threshold, control paw, Mean” value [1] is reported as 366 g. The “% activity on mechanical hyperalgesia, injured paw” value (“% activity” below) [2] was 9%, the “% variation vs control paw, injured paw” value [2] was −47% and the “% variation vs pre-drug threshold, injured paw” value [2] was 10%. For the same molecule, the “% variation vs vehicle treated group, injured paw” value [2] was 11%, the “paw withdrawal threshold, control paw, individual rats” value [3] was 400 g (2×) and 300 g (2×) and 360 g and 320 g (4×) and 440 g and the “paw withdrawal threshold, injured paw, individual rats” value (“paw withdrawal threshold, injured paw” for short) [3] was 200 g (3×) and 180 g (3×) and 160 g (3×) and 220 g. The “paw withdrawal threshold, control paw, Mean” value (CCI rats, MIN-117 1 mg/kg IP, 120 min after treatment) was 348 g, the “% variation vs control paw, injured paw” value [4] was −55% and the “% variation vs vehicle treated group, injured paw” value [4] was −8%. For the same molecule, the “paw withdrawal threshold, control paw, Mean” value [4] was 364 g, the “% activity” value [5] was 29% and the “% variation vs control paw, injured paw” value [5] was −40%. For the same molecule, the “% variation vs pre-drug threshold, injured paw” value [5] was 35%, the “% variation vs vehicle treated group, injured paw” value [5] was 34% and the “paw withdrawal threshold, control paw, individual rats” value [6] was 440 g and 420 g (2×) and 300 g and 360 g (2×) and 340 g (2×) and 460 g and 280 g. For the same molecule, the “paw withdrawal threshold, injured paw” value [6] was 280 g and 220 g (2×) and 200 g (3×) and 180 g and 240 g (3×), the “paw withdrawal threshold, control paw, Mean” value (CCI rats, MIN-117 3 mg/kg IP, 120 min after treatment) was 372 g and the “% variation vs control paw, injured paw” value [7] was −55%. The “% variation vs vehicle treated group, injured paw” value [7] was −8%, the “paw withdrawal threshold, control paw, Mean” value [7] was 368 g and the “% activity” value [8] was 59%. For the same molecule, the “% variation vs control paw, injured paw” value [8] was −33%, the “% variation vs pre-drug threshold, injured paw” value [8] was 71% and the “% variation vs vehicle treated group, injured paw” value [8] was 69%. For the same molecule, the “paw withdrawal threshold, control paw, individual rats” value [9] was 600 g and 320 g and 440 g (4×) and 400 g and 280 g and 480 g and 360 g, the “paw withdrawal threshold, injured paw” value [9] was 440 g and 320 g (2×) and 260 g and 220 g and 240 g (4×) and 280 g and the “paw withdrawal threshold, control paw, Mean” value (CCI rats, MIN-117 10 mg/kg IP, 120 min after treatment) was 420 g. The “Nociceptive threshold, control paw (mean ± s.e.m.)” value (from here on “Nociceptive threshold, control paw”) (CCI, 1 mg/kg IP) was 366 ± 16.1 g, the “% variation vs control paw, injured paw” value [10] was −54% and the “% variation vs vehicle-treated group, injured paw” value [10] was −6%. The “Nociceptive threshold, injured paw (mean ± s.e.m.)” value (from here on “Nociceptive threshold, injured paw”) [10] was 168 ± 8.0 g, the “% variation vs control paw, injured paw” value (CCI, 1 mg/kg IP, T0 + 120 min) was −47% and the “% variation vs pre-drug threshold, injured paw” value (CCI, 1 mg/kg IP, T0 + 120 min) was 10%. The “% variation vs vehicle-treated group, injured paw” value (CCI, 1 mg/kg IP, T0 + 120 min) was 11%, the “Nociceptive threshold, injured paw” value (CCI, 1 mg/kg IP, T0 + 120 min) was 184 ± 6.5 g and the “Effect on nociceptive threshold vs vehicle-treated group (in words)” value (from here on “Effect … vs vehicle-treated group (in words)”) (CCI, 1 mg/kg i.p., 120 min. after treatment) was “did not induce any significant increase”. The “Nociceptive threshold, control paw” value (CCI, 3 mg/kg IP) was 364 ± 9.8 g, the “% variation vs control paw, injured paw” value [11] was −55% and the “% variation vs vehicle-treated group, injured paw” value [11] was −8%. The “Nociceptive threshold, injured paw” value [11] was 164 ± 5.8 g, the “% variation vs control paw, injured paw” value (CCI, 3 mg/kg IP, T0 + 120 min) was −40% and the “% variation vs pre-drug threshold, injured paw” value (CCI, 3 mg/kg IP, T0 + 120 min) was 35%. For the same molecule, the “% variation vs vehicle-treated group, injured paw” value (CCI, 3 mg/kg IP, T0 + 120 min) was 34%, the “Nociceptive threshold, injured paw” value (CCI, 3 mg/kg IP, T0 + 120 min, hydrochloride, 3 mg/kg) was 222 ± 9.2 g and the “Effect … vs vehicle-treated group (in words)” value (CCI, 3 mg/kg i.p., after 120 min.) was “significant increase”. The “Nociceptive threshold, control paw” value (CCI, 10 mg/kg IP) was 368 ± 16.9 g, the “% variation vs control paw, injured paw” value [12] was −55% and the “% variation vs vehicle-treated group, injured paw” value [12] was −8%. The “Nociceptive threshold, injured paw” value [12] was 164 ± 7.2 g, the “% variation vs control paw, injured paw” value (CCI, 10 mg/kg IP, T0 + 120 min) was −33% and the “% variation vs pre-drug threshold, injured paw” value (CCI, 10 mg/kg IP, T0 + 120 min) was 71%. For the same molecule, the “% variation vs vehicle-treated group, injured paw” value (CCI, 10 mg/kg IP, T0 + 120 min) was 69%, the “Nociceptive threshold, injured paw” value (CCI, 10 mg/kg IP, T0 + 120 min, hydrochloride, 10 mg/kg) was 280 ± 20.9 g and the “Effect … vs vehicle-treated group (in words)” value (CCI, 10 mg/kg i.p., after 120 min.) was “significant increase”.

`CN1CC[C@]23c4c5ccc(O)c4O[C@H]2[C@@H](O)C=C[C@H]3[C@H]1C5` [Morphine, reference compound] was tested, and the “% activity” value [13] was 165%, the “% variation vs control paw, injured paw” value [13] was −23% and the “% variation vs pre-drug threshold, injured paw” value [13] was 159%. For the same molecule, the “paw withdrawal threshold, control paw, individual rats” value [14] was 680 g (2×) and 640 g (3×) and 600 g (3×) and 560 g and 660 g, the “paw withdrawal threshold, injured paw” value [14] was 680 g and 600 g (2×) and 480 g (2×) and 560 g and 320 g and 500 g and 240 g and 400 g and the “paw withdrawal threshold, control paw, Mean” value [14] was 630 g. The “% variation vs control paw, injured paw” value [15] was −49%, the “% variation vs vehicle treated group, injured paw” value [15] was 6% and the “paw withdrawal threshold, control paw, Mean” value [15] was 372 g. For the same molecule, the “Nociceptive threshold, control paw” value (CCI, 3 mg/kg SC) was 372 ± 20.7 g, the “% variation vs control paw, injured paw” value [16] was −49% and the “% variation vs vehicle-treated group, injured paw” value [16] was 6%. The “Nociceptive threshold, injured paw” value (CCI, 3 mg/kg SC, T0 (before dosing), 3 mg/kg) was 188 ± 10.4 g, the “% variation vs control paw, injured paw” value (CCI, 3 mg/kg SC, T0 + 30 min) was −23% and the “% variation vs pre-drug threshold, injured paw” value (CCI, 3 mg/kg SC, T0 + 30 min) was 159%. The “Nociceptive threshold, injured paw” value (CCI, 3 mg/kg SC, T0 + 30 min, 3 mg/kg) was 486 ± 42.8 g and the “Effect on nociceptive threshold vs baseline pre-treatment (in words)” value (CCI, 3 mg/kg s.c., 30 min. after the administration) was “pronounced and significant increase”.
